# Assay results reported in US8697385B1, “Protein controlling synthesis of collagen and associated methods” (Florida State University Research Foundation, Inc., priority 2009, dated 2014).
# Columns and labels:
# [1] = system: nonmuscle myosin filaments; experiment: Immunostaining of nonmuscle myosin IIB filaments in lung fibroblasts; type: cell-based; conditions: human lung fibroblasts; ML-7 40 μM 16 h; untreated cells show prominent filaments
# Method: (§1) ML-7, blebbistatin, cytochalasin B, puromycin, and cycloheximide were purchased from Sigma. ML-7 was used at 40 μM, blebbistatin was used at 100 μM, and cytochalasin B was used at 20 μM. Cells were incubated with the drugs for 16 h before analysis. Puromycin (200 μg/ml) and cycloheximide (100 μg/ml) were added to the cells for 2 h. Human lung fibroblasts have been described previously.16 Scleroderma fibroblasts were purchased from the European Collection of Cell Cultures (cell line BM0070) and derived from the skin of a scleroderma patient. MEFs were derived from knock-in mice in which the 5′SL of the collagen α1(I) gene has been mutated (Parsons et al., submitted). Several independent cell isolates were used throughout the study. All cells were cultured in Dulbecco's modified Eagle's medium supplemented with 10% fetal bovine serum for up to 10 passages. […] [^32P]dCTP was included in the PCR step to label the products, which were resolved on sequencing gels, as described previously.^8,31,49,50 When RNA from polysomal fractions was analyzed, an equal aliquot of each fraction was used. […]
# (§2) Protein concentration was estimated by the Bradford assay, with bovine serum albumin as standard.^51 Western blot analyses of cellular proteins were performed using 50 μg of protein. […] The medium was collected, and an aliquot was analyzed directly by Western blot analysis. […]
# Δ5′SL MEFs = experiment: Western blot analysis of collagen α1(I) polypeptide, Δ5′SL MEFs; type: cell-based, mouse; conditions: ML-7 treatment
# Method: as §1, §2
# lung fibroblasts = experiment: Immunostaining for subcellular colocalization of collagen α1(I) and α2(I) polypeptides; type: cell-based, human; conditions: ML-7-treated vs control cells (high degree of colocalization)
# Method: as §1, §2
# [2] = system: LARP6 and nonmuscle myosin; experiment: Coimmunoprecipitation of nonmuscle myosin IIB with HA-tagged LARP6; type: cell-based, human; conditions: lung fibroblasts; ML-7-treated vs control cells
# Method: as §1, with “passages. Plasmid constructs and adenovirus preparation.” for “passages.”
# One of the roles of nonmuscle myosin filaments may be to present collagen mRNAs to ribosomes. Therefore, we assessed if the association of collagen mRNAs with nonmuscle myosin is dependent on intact polysomes. […]
structure (smiles),measurement,setting,value
O=S(=O)(c1cccc2c(I)cccc12)N1CCCNCC1 [ML-7],myosin IIB immunostaining (filaments),[1],myosin staining is confined around the nucleus
same,secretion of α1(I) polypeptide into the medium,Δ5′SL MEFs,did not affect
same,subcellular colocalization of α1(I) and α2(I) polypeptides,lung fibroblasts,a significant fraction of α2(I) polypeptide (red) was not colocalized with α1(I) polypeptide
same,myosin IIB pulled down with LARP6,[2],significantly less
